Values of other authors in patent publication US12016331B2, “Microemulsions and uses thereof as delivery systems” (ARCHER DANIELS MIDLAND COMPANY, priority 2012, dated 2024).

SMILES	LD 50 value, dermal toxicity
CC(O)C(=O)O (centres unmarked) [lactic acid]	greater than 3000 mg/Kg
CCC(=O)O [propionic acid]	500 mg/kg
